Measured values as given in patent US6762198B2, “Dihetero-substituted metalloprotease inhibitors” (The Procter & Gamble Company, priority 1999, dated 2004).

How the values were obtained:
[1] = tested on: human subject suffering from rheumatoid arthritis; test: Example A: oral tablets in a human subject with rheumatoid arthritis; format: in vivo; conditions: human 60 kg, three tablets (15 mg compound each) per day orally for 2 years
Procedure: A tablet composition for oral administration, according to the present invention, is made comprising:
A human subject weighing 60 kg (132 lbs), suffering from rheumatoid arthritis, is treated by a method of this invention. Specifically, for 2 years, a regimen of three tablets per day is administered orally to said subject.

[2] = tested on: human subject suffering from osteoarthritis; test: Example B: oral capsule in a human subject with osteoarthritis; format: in vivo; conditions: human 90 kg, capsule containing 70 mg daily for 5 years
Procedure: A capsule for oral administration, according to the present invention, is made comprising:
A human subject weighing 90 kg (198 lbs.), suffering from osteoarthritis, is treated by a method of this invention. Specifically, for 5 years, a capsule containing 70 mg of the compound of Example 3 is administered daily to said subject.

[3] = tested on: patient having deep corneal abrasion; test: Example C: saline-based eye drop in a patient with deep corneal abrasion; format: in vivo, human; conditions: 5% w/w saline-based drop to each eye twice a day
Source text: A saline-based composition for local administration, according to the present invention, is made comprising:
A patient having deep corneal abrasion applies the drop to each eye twice a day.

[4] = tested on: patient suffering from chemical bums; test: Example D: topical composition in a patient with chemical burns; format: in vivo, human; conditions: 0.20% w/v topical composition at each dressing change (b.i.d.)
Source text: A topical composition for local administration, according to the present invention, is made comprising:
A patient suffering from chemical bums applies the composition at each dressing change (b.i.d.).

[5] = tested on: human subject with a premetastatic tumor; test: Example G: parenteral suspension in a human subject with a premetastatic tumor; format: in vivo; conditions: about 2.0 mL of 100 mg/mL suspension injected beside the tumor twice daily, after 30 days
Procedure: A composition for parenteral administration is made comprising:
The above ingredients are mixed, forming a suspension. Approximately 2.0 mL of the suspension is administered, via injection, to a human subject with a premetastatic tumor. The injection site juxtaposes the tumor. This dosage is repeated twice daily, for approximately 30 days.

asthma sufferer = test: Example E: inhalation aerosol in an asthma sufferer; format: in vivo, human; conditions: 0.01 mL of 5.0% w/v inhalation aerosol sprayed into the mouth while inhaling

## COc1ccc(-c2ccc(S(=O)(=O)NC(CC(O)CSc3nccs3)C(=O)O)cc2)cc1 (stereo not drawn) [Example 1, 2-[(4′-Methoxy[1,1′-biphenyl]-4-yl)sulfonyl]amino-4-hydroxy-5-[(2-thiazolyl)thio]-pentanoic Acid]
[1]
  inflammation, mobility and pain at the end of the treatment period: reduced inflammation, and improved mobility without concomitant pain

## O=C(O)C(CC(O)CSc1nccs1)NS(=O)(=O)c1ccc(-c2ccc(Oc3ccccc3)cc2)cc1 (stereo not drawn) [Example 3, 2-[(4′-Phenoxy[1,1′-biphenyl]-4-yl)sulfonyl]amino-4-hydroxy-5-[(2-thiazolyl)thio]pentanoic Acid]
[2]
  advancement of erosion/fibrillation of the articular cartilage (x-ray, arthroscopy and/or MRI): no further advancement of erosion/fibrillation of the articular cartilage

## Cc1ccc(C#Cc2ccc(S(=O)(=O)NC(CC(O)CSc3nccs3)C(=O)O)cc2)cc1 (stereo not drawn) [Example 10, 2-[[4-[(4-Methylphenyl)ethynyl]phenyl]sulfonyl]amino-4-hydroxy-5-[(2-thiazolyl)thio]-pentanoic Acid]
[3]
  corneal healing: Healing is speeded, with no visual sequelae

## COc1ccc(-c2ccc(S(=O)(=O)NC(CC(O)CNc3ccccc3)C(=O)O)cc2)cc1 (stereo not drawn) [Example 19, 2-[(4′-Methoxy[1,1′-biphenyl]-4-yl)sulfonyl]amino-4-hydroxy-5-(phenylamino)-pentanoic Acid]
[4]
  scarring: Scarring is substantially diminished

## COc1ccc(-c2ccc(S(=O)(=O)NC(CC(O)CSc3ncc[nH]3)C(=O)O)cc2)cc1 (stereo not drawn) [Example 22, 2-[(4′-Methoxy[1,1′-biphenyl]-4-yl)sulfonyl]amino-4-hydroxy-5[(2-imidazolyl)thio]-pentanoic Acid]
[5]
  symptoms of the disease: symptoms of the disease subside

## COc1ccc(-c2ccc(S(=O)(=O)NC(CC(O)CSc3n[nH]c(-c4ccccc4)n3)C(=O)O)cc2)cc1 (stereo not drawn) [Example 42, 2-[(4′-Methoxy[1,1′-biphenyl]-4-yl)sulfonyl]amino-4-hydroxy-5-[(5-phenyl-1H-1,2,4-triazol-3-yl)thio]-pentanoic Acid]
Asthma sufferer
  asthma symptoms: Asthma symptoms are diminished
